Test results as given in US11246834B2, “Nutraceutical or pharmaceutical composition for use in the treatment of polycystic ovary syndrome or of diseases or disorders related thereto” (S&R FARMACEUTICI S.P.A., priority 2016, dated 2022).

Assays:
HEK293 cells [1] = assay: MTT test of cellular metabolism under hydrogen peroxide oxidative stress; format: cell-based, Human; settings: HEK293, 300 μM hydrogen peroxide; 40 μM myoinositol + 100 μM D-chiro inositol and/or 10 μM resveratrol
Procedure: (§1) The measures have been performed in triplicate. Left (MTT) and (cell count). Human embryonic kidney HEK293 cells were grown in adherence in a growth medium consisting of DMEM supplemented with 10% fetal bovine serum (FBS) for 24 hours before being treated with 300 μM hydrogen peroxide in the presence of inositols (MI-D-chirol, 40 μM myoinositol and 100 μM D-chiro inositol, molar ratio MI/D-ChiroI=0.4) or resveratrol (10 μM) or in a combination of inositol and resveratrol. The effects of treatments on cellular metabolism were evaluated by the MTT test, while on the proliferation by cell count in Burker's chamber and all effects were compared with growing cells under controlled conditions (DMEN+10% FBS). The inositol concentrations were chosen based on the myo-inositol (MI) plasma concentration (26), and considering the molar ratio MI/D-Chirol=0.4 according to the invention, while the resveratrol concentration (10 μM) was chosen considering the plasma concentration expected after a treatment regime with resveratrol supported on hydroxide such as that from […]. […] Oxidative stress aggravates the pathological state of PCOS along with hormonal imbalance (27).

HEK293 cells [2] = assay: Cell count in Burker's chamber (proliferation) under hydrogen peroxide oxidative stress; format: cell-based, Human; settings: HEK293, 300 μM hydrogen peroxide; 40 μM myoinositol + 100 μM D-chiro inositol and/or 10 μM resveratrol
Procedure: as §1

Oc1ccc(C=Cc2cc(O)cc(O)c2)cc1 [resveratrol]
effect on the anti-proliferative effect of oxidative stress, metabolic activity (MTT) (HEK293 cells [1]): only partially counteracted
effect on the anti-proliferative effect of oxidative stress, cell number (cell count) (HEK293 cells [2]): only partially counteracted
